Series [1] concerns TNFα release. As to the kind of experiment: LPS-induced TNFα release in human blood diluted 1:5 (ELISA). Type of series: cell-based. The note with it: human blood diluted 1:5, LPS 10 μg/ml, 24 h, n = 8. The protocol: In vitro investigations were carried out for influencing the release of the proinflammatory cytokine TNFα in human blood diluted 1:5. Stimulation was carried out using lipopolysaccharide (LPS) of Salmonella abortus equi (10 μg/ml) over the course of 24 h at 37° C. and 5% CO2 in an incubator. The TNFα release was carried out using an ELISA, composed from antibodies from Pharmigen. The results were indicated as the percentage inhibition of LPS-induced TNFα release (Table 1).
For orientation: An ELISA detects its analyte on a solid surface through an enzyme-linked reagent.

Series [2] concerns eosinophilic granulocytes in the lung. In words: Late-phase eosinophilia in actively sensitized guinea pigs, pulmonary lavage 24 h after allergen provocation. The format is in vivo. Particulars: guinea pig.
Series [3] is described as follows: Thymus involution in young rats on intrapulmonary powder administration over 29 days. The format is in vivo. The note with it: for Toxic dose with significant thymus involution: repeated intrapulmonary administration, 29 days, 1x daily, young rats; for Quotient of toxic dose: therapeutic dose (therapeutic breadth): toxic dose (mg/kg, 29 days) / ID50 (μg/kg, single dose), intrapulmonary, rats. The protocol: In the second experiment, the influence of loteprednol on the thymus development of young rats (21 days old at the start of the experiment) was intensively investigated in comparison to budesonide and fluticasone (see Table 4). After an intrapulmonary long-term administration of the active compound in powder form over the course of 29 days (1× daily) by means of a tube, at the end of the experiment the thymus glands were removed and the organ weight per 100 g of body mass was determined.
(§1) The therapeutic breadth of the corticosteroids was determined with the aid of the quotient of the dose (mg/kg) with significant thymus involution (toxic dose) on repeated intrapulmonary administration over the course of 29 days (1× daily) and the therapeutic dose. The therapeutic dose was determined in the asthma model of late-phase eosinophilia on actively sensitized brown Norway rats. The active compound was administered to the sensitized brown Norway rats under anesthesia intrapulmonarily 2 hours before an allergen provocation (challenge) and 24 hours later the lungs of the animals were lavaged under deep anesthesia. The number of eosinophilic granulocytes in the pulmonary lavage fluid of untreated and active compound-treated rats was then determined. Corticosteroids such as loteprednol inhibit the infiltration of eosinophils into the lung after allergen provocation.

Series [4] relates to eosinophilic granulocytes in the pulmonary lavage fluid. As to the kind of experiment: Late-phase eosinophilia in actively sensitized brown Norway rats, single intrapulmonary administration. Type of series: in vivo. Particulars: 2 h before allergen provocation. The protocol:
as §1

For series [5] the following is noted: topically administered; cited from earlier work.
For series [6] the following is noted: topically administered; cited from earlier work. The source holds these as a separate data set.

As usually defined, the inhibition is the share of the control response that was lost under treatment.

`CCOC(=O)O[C@]1(C(=O)OCCl)CC[C@H]2[C@@H]3CCC4=CC(=O)C=C[C@]4(C)[C@H]3[C@@H](O)C[C@@]21C` [Loteprednol, loteprednol] returned an inhibition at 0.001 µM in series [1] (0.001 μmol/l) of 1%. Besides, the Inhibition of eosinophilia in series [2] (0.001 mg/kg intrapulmonarily) is given as 10.5%. Besides, the Inhibition of eosinophilia in series [2] (0.003 mg/kg intrapulmonarily) is 21.8%. In series [3], the “Toxic dose with significant thymus involution” value was 20000 µg/kg and the “Quotient of toxic dose: therapeutic dose (therapeutic breadth)” value (from here on “Quotient of toxic dose: therapeutic dose”) is given as 45.5 ×10^3. For the same compound, the “Therapeutic dose in late-phase eosinophilia ID50” value in series [4] turned out to be 0.44 µg/kg. The “Increase of intraocular pressure” value in series [5] is “does not increase the intraocular pressure”. Further, the “Detection in the plasma” value in series [6] is “could not be detected in the plasma”.
Regarding `CC(C)(C)NCC(O)c1ccc(O)c(CO)c1` (stereo not drawn) [Salbutamol, salbutamol], the inhibition at 10 µM in series [1] (10 μmol/l) was determined as 17%.
On to `CCCC1O[C@@H]2C[C@H]3[C@@H]4CCC5=CC(=O)C=C[C@]5(C)[C@H]4[C@@H](O)C[C@]3(C)[C@]2(C(=O)CO)O1` (stereo partly drawn) [Budesonide, budesonide], for which, in series [3], the “Toxic dose with significant thymus involution” value is 500 µg/kg and the “Quotient of toxic dose: therapeutic dose” value was 5 ×10^3. Moreover, in series [4], the “Therapeutic dose in late-phase eosinophilia ID50” value is 0.1 µg/kg.
On to `C[C@@H]1C[C@H]2[C@@H]3C[C@H](F)C4=CC(=O)C=C[C@]4(C)[C@@]3(F)[C@@H](O)C[C@]2(C)[C@@]1(O)C(=O)SCF` [Fluticasone, fluticasone], for which, in series [3], the “Toxic dose with significant thymus involution” value came to 1000 µg/kg and the “Quotient of toxic dose: therapeutic dose” value is on record as 33 ×10^3. For the same compound, the “Therapeutic dose in late-phase eosinophilia ID50” value in series [4] worked out at 0.03 µg/kg.

The values above are taken from US7521438B1, “Combination of loteprednol and β2-adrenoceptor agonists” (MEDA Pharma GmbH & Co. KG, priority 1999, dated 2009).
